Experimental data from patent publication US20260174791A1, “MACROPHAGE MIGRATION INHIBITORY FACTOR (MIF) TARGETING FOR THE TREATMENT OF NON-SMALL CELL LUNG CANCER” (Board of Regents, The University of Texas System, priority 2022, published 2026).

Assays:
[1] = system: lung cancer patients, EGFR or KRAS mutation; settings: patients who harbor an EGFR mutation; cited from earlier work
[2] = system: NSCLC patients with STK11/LKB1 and/or KEAP1 mutations; experiment: Clinical data, pembrolizumab plus first-line chemotherapy in NSCLC patients; type: in vivo, human
Description: FIG. 1A is a graph illustrating response rates to pemetrexed/platin/pembrolizumab (PCP) chemo-immunotherapy in STK11 and KEAP1-defined wild type (wt) and mutant subgroups. FIG. 1B is a graph illustrating response rates to pemetrexed/platin/pembrolizumab (PCP) chemo-immunotherapy in STK11 and KEAP1-defined wild type (wt) and mutant subgroups. […] FIG. 1D a Kaplan-Mayer graph illustrating overall survival of STK11/LKB1 and KEAP1 mutant or wt defined patients.

In the case of `C#Cc1cccc(Nc2ncnc3cc(OCCOC)c(OCCOC)cc23)c1` [erlotinib], the response rate [1] is given as 60%.

For pembrolizumab, the “refractory disease on pembrolizumab plus standard care first-line chemotherapies” value ([2]; NSCLC patients (n=139), STK11/LKB1 and/or KEAP1 mutant vs wild type) was “higher percentage of patients with refractory diseases” and the “clinical benefit (survival) of adding pembrolizumab to chemotherapy” value ([2]; patients with STK11 and/or KEAP1 genomic alterations, vs chemotherapy alone) was “did not result in clinical benefit”.
